Laboratory results published in patent US7651846B2, “Treatment and diagnosis of conditions associated with elevated arginase activity” (Children's Hospital & Research Center at Oakland, priority 2003, dated 2010).

Legend:
asthma patients = settings: nebulised, steroid naive asthma; cited from earlier work
[1] = test system: hyperresponsiveness of reactive airways; settings: animal studies, inhalation of low doses; cited from earlier work
[2] = test system: normal and asthmatic subjects; settings: inhaled, dose-dependent; cumulative effect higher in asthmatic subjects; cited from earlier work
[3] = test system: patients with a known diagnosis of asthma; settings: single oral dose 0.1 gm/kg, one patient
Protocol: The effects of arginine supplementation on pulmonary function tests is evaluated by administering supplemental arginine (oral or intravenous) alone or in conjunction with magnesium and/or an arginase inhibitor to patients with a known diagnosis of asthma, defined as ≧3 wheezing episodes and a past history of asthma medication usage (e.g., bronchodilators, steroids, inhaled steroids, or leukotriene inhibitors etc). Pulmonary function tests are performed before and after a single dose of arginine (0.1 gram/kg to a max of 10 grams).
A single dose of oral arginine (0.1 gm/kg) was administered. Pulmonary function tests were determined prior to treatment and 2 hours after arginine supplementation.

[4] = Plasma amino acid levels after oral L-arginine supplementation in SCD patients with pulmonary hypertension; format: in vivo, human; settings: after five days of oral L-arginine supplementation, n=10, p<0.05
Protocol: Amino Acid Levels. (A complete amino acid panel, including arginine, citrulline, ornithine, and L-arginine analogue asymmetric di-methyl-L-arginine). Quantitative plasma amino acid levels are measured in μmol/L, using a Beckman 6300 amino acid analyzer. The amino acids are separated on an lithium ion exchange column and then reacted with ninhydrin to generate a color response. The data is collected and analyzed using Beckman 32 Karat software, at the Molecular Structure Facility, University of California, Davis, Calif.
(§1) Patients with sickle cell disease and documented pulmonary hypertension by echocardiography were treated with oral L-arginine-HCl, at a dose of 0.1 g/kg TID for five days. […] Blood samples for determination of amino acid levels were drawn in the morning of Day 0 (pre-treatment), […], and Day six of the study. Arginase activity levels were determined on Day 0. No patients were being concurrently treated with vasodilators or anticoagulant agents, and no patients received a red blood cell transfusion during the five-day study period. Cardiologists involved in the interpretation of echocardiograms were unaware of the therapy given.

patients with asthma = settings: oral; cited from earlier work
cystic fibrosis patients = settings: inhaled; cited from earlier work
[5] = test system: cationic amino acid molecules (Cationic Amino Acid Transporter, CAT); settings: read-out: Km for arginine transport; cited from earlier work
[6] = test system: Patients with sickle cell disease and documented pulmonary hypertension; test: Oral L-arginine in sickle cell disease patients with pulmonary hypertension, Doppler echocardiography; format: in vivo, human
From the text: Sickle cell patients. Seventeen sickle cell disease patients with documented pulmonary hypertension at steady-state were enrolled in the study. All known patients with pulmonary hypertension receiving care at the Northern California Comprehensive Sickle Cell Center were approached for participation in this analysis. Twelve patients were homozygous for hemoglobin S, three patients had hemoglobin type SC, and two patient had hemoglobin S β-thalassemia. The mean age of patients was 32.7±15 years with a range of 13 to 63 years. There were seven women enrolled. Ten ethnically matched normal non-sickle cell disease volunteers were enrolled as a control group in order to compare amino acid levels and arginase activity. The mean age was 20.6±10 years, ranging from 10 to 34 years. There were four females and six males enrolled. Pulmonary hypertension was defined as estimated pulmonary artery pressures >30 mm Hg by echocardiogram (or tricuspid regurgitant jet velocity of greater than 2.5 m/sec), >two months duration, not associated with acute chest syndrome. A chart review was performed on all patients to obtain tricuspid regurgitant jet velocity data from previous echocardiograms.
as §1
Echocardiography. […] They were the only patient found to not show an improvement in pulmonary hypertension by echocardiogram.
Results were unavailable from outside hospitals in three patients. […]

arginase = settings: cited from earlier work

For `N=C(N)NCCC[C@@H](N)C(=O)O` [D-arginine], the “exhaled NO following administration” value (asthma patients) is given as “increased”.

In the case of `N=C(N)NCCC[C@H](N)C(=O)O` [L-arginine], the “hyperresponsiveness of reactive airways” value [1] is given as “completely blocked”, the “exhaled NO” value [2] is given as “increased” and the “exhaled NO following administration” value (asthma patients) is given as “increased”. For the same compound, the “FIF 50% improvement” value ([3]; 2 hours after) was 23%, the “effect on lung volumes” value ([3]; 2 hours after) was “minimal effect” and the effect on spirometry ([3]; 2 hours after) was “did not significantly effect spirometry”. For the same compound, the “airway conductance, Gaw increase” value ([3]; within 2 hours) was 28%, the “airway resistance, Raw decrease” value ([3]; within 2 hours) was 22% and the “oxygen saturation by venous blood gas after treatment” value ([3]; increase from 85 %) was 92%. The “plasma L-arginine concentration” value [4] was “increased significantly”, the plasma ornithine concentration [4] was “increased significantly” and the “airway hyperresponsiveness to histamine as reflected by PC(20)” value (patients with asthma) was “does not influence”. The pulmonary functions (cystic fibrosis patients) was “improves”, the Km [5] was ~100 µM and the “pulmonary artery systolic pressure after therapy” value ([6]; oral 0.1 g/kg TID for five days, baseline 63.9±13 mmHg, p=0.002) was 54.2±12 mmHg. The “mean reduction of pulmonary artery systolic pressure” value ([6]; oral L-arginine-HCl 0.1 g/kg TID, after five days of therapy, p=0.002) was 15.2% and the “follow-up echocardiography (pulmonary artery systolic pressure)” value ([6]; ≧one month after arginine therapy, nine compliant patients: four reverted to baseline, four persistent improvement, one worsening) was “mixed results”.

For `NC(=NCCC[C@H](N)C(=O)O)NO` [NG-hydroxyl-L-arginine], the “inhibition of arginase activity” value (arginase) is listed as “potent inhibitor”.
